Experimental data as given in patent US20240174652A1, “NOVEL DIOXANE DERIVATIVES” (Boehringer Ingelheim International GmbH, priority 2022, published 2024).

Biological target: human metabotropic Glutamate 4 receptor (Homo sapiens (Human), UniProt Q14833)
Experiment: Assay A: in vitro testing of mGluR4 potency (cAMP HTRF, glutamate/forskolin stimulated)
Format: cell-based
Settings: HEK293 cells overexpressing human mGluR4, 10 uM L-glutamic acid, 1 uM forskolin
Protocol: A. In Vitro Testing of mGluR4 Potency The in vitro activity of the compounds according to the invention may be investigated as follows:
The HEK293 cell overexpressing the human metabotropic Glutamate 4 receptor are thawed at 37° C. and immediately diluted with cell culture medium. After centrifugation, the cell pellet is re-suspended in medium and then distributed from a stirred spinner flask into the wells of the assay plate. The plates are incubated for one hour at room temperature before they are incubated for 24 hours at 37° C./5% CO2. After washing the cells in the plate three times with 80 uL HBSS/HEPES buffer (10 uL buffer remained in the wells after washing), 5 uL per well of compounds diluted in HBSS/HEPES buffer containing 0.2% BSA (final concentration: 0.1%) and 1 mM IBMX (final concentration: 0.5 mM) are added to the wells of the assay plate. Thereafter 5 uL per well of L-Glutamic acid (final concentration: 10 uM), forskolin (final concentration: 1 uM) and 1 mM IBMX (final concentration: 0.5 mM) dissolved in HBSS/HEPES buffer containing 0.2% BSA (final concentration: 0.1%) are added to the assay plate (final DMSO concentration: 1%). Several wells of the assay plate are used either for the positive and the negative controls or for the cAMP standard curve. The assay plate is incubated for 30 minutes at room temperature. Then 5 ul per well of Anti-cAMP-Antibody-d2 solution and 5 ul per well of cAMP-Europium Cryptate dilution are added to all wells of the plate and the plate is incubated another 60 minutes light protected at room temperature. The emission at 615 nm and 665 nm (Excitation wavelength: 320 nm) are measured on the EnVision™ reader (Perkin Elmer). The ratio between the emission at 665 nm and 615 is calculated by the reader. The whole assay is performed in the dark or under green light.
The cAMP standard is prepared by diluting the cAMP stock solution with HBSS/Hepes buffer: 5 μl/well of the cAMP dilutions (in HBSS/Hepes buffer containing 1 mM IBMX and 0.2% BSA—final concentration: 0.5 mM IBMX and 0.1% BSA) are added to 10 ul/well HBSS/Hepes buffer plus 5 ul/well 4% DMSO in HBSS/Hepes containing 0.2% BSA (final DMSO concentration: 1% —like in the wells containing compounds) in the wells of the assay plate. The final cAMP concentrations in the assay plate are: 0, 0.17, 0.69, 2.78, 11.1, 44.5, 178, and 712 nM (two wells/cAMP concentration).
Each assay microtiter plate contained also wells with vehicle controls instead of compound as controls for L-Glutamic acid induced signal (negative control; 100% CTL; 10 uM L-Glutamic acid+1 uM forskolin+0.5 mM IBMX+1% DMSO) and wells with vehicle controls without L-Glutamic acid as controls for non-specific changes in signal (positive control; 0% CTL; 0 uM L-Glutamic acid+1 uM forskolin+0.5 mM IBMX+1% DMSO).
The analysis of the data is performed by the calculation the ratio between the emission at 665 nm and the emission at 615 nm (Em665/Em615 ratio). Thereafter the signals of the compounds are normalized using the positive and negative controls by the following formula:
PoC=100×((Signal Sample−Positive Control)/(Negative Control−Positive Control))

[1] = compounds of the present invention
[2] = prior-art compounds of WO2019/138017

Sequence of human metabotropic Glutamate 4 receptor (Q14833 33-912): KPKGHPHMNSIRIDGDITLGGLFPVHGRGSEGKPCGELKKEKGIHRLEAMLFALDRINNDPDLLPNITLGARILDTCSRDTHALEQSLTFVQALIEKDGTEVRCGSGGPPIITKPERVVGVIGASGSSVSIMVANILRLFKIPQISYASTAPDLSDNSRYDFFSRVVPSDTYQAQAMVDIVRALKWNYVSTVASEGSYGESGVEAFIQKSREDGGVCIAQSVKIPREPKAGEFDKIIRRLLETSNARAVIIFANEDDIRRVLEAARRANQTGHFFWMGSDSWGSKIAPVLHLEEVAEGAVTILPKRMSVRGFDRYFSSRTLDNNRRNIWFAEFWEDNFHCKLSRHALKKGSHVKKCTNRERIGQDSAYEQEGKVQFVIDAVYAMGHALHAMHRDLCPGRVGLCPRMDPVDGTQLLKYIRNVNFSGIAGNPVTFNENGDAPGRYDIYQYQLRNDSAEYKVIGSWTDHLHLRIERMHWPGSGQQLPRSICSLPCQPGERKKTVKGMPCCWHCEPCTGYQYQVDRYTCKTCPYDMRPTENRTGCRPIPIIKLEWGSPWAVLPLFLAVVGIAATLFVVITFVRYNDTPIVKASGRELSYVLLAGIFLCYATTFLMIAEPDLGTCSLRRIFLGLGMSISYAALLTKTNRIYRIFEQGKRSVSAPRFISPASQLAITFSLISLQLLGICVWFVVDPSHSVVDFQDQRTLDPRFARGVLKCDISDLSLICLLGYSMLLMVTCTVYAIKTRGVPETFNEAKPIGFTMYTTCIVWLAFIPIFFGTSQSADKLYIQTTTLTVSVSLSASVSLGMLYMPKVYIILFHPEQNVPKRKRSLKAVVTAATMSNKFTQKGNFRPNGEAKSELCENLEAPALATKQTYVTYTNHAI

Row | Structure (SMILES) | IC50 [1] | IC50 [2]
1 | Cc1cnc(C(=O)NC(c2nc3cc(C(F)(F)F)ccc3n2C)C2COCCO2)cn1 (single isomer, unassigned) [Example 1-1, N-[(1,4-dioxan-2-yl)[1-methyl-5-(trifluoromethyl)-1H-1,3-benzodiazol-2-yl]methyl]-5-methylpyrazine-2-carboxamide] | 67 nM | –
2 | Cc1cnc(C(=O)N[C@H](c2nc3cc(C(F)(F)F)ccc3n2C)[C@H]2COCCO2)cn1 [Example 1, N-[(R)-[(2S)-1,4-dioxan-2-yl][1-methyl-5-(trifluoromethyl)-1H-1,3-benzodiazol-2-yl]methyl]-5-methylpyrazine-2-carboxamide] | 20 nM | –
3 | Cc1nocc1C(=O)N[C@H](c1nc2cccc(F)c2[nH]1)[C@H]1CC[C@H](C)CC1 [Example 8 in WO2019/ 138017, reference compound] | – | 9850 nM
4 | COc1ccc2[nH]c(C(NC(=O)c3conc3C)C3CCCCCCC3)nc2c1F (centres unmarked) [Example 12 in WO2019/ 138017, reference compound] | – | > 10000 nM
5 | CCn1nccc1C(=O)N[C@H](c1nc2ccc(C#N)c(F)c2[nH]1)[C@H]1CC[C@H](C)CC1 [Example 125 in WO2019/ 138017, reference compound] | – | 5600 nM
6 | Cn1nccc1C(=O)N[C@H](c1nc2c(F)c(Br)ccc2n1C)[C@H]1CC[C@@H](C)CC1 [Intermediate 250 in WO2019/ 138017 (regioisomere 1), reference compound] | – | 6300 nM
7 | Cn1nccc1C(=O)N[C@H](c1nc2c(F)c(Br)ccc2n1C)[C@H]1CC[C@H](C)CC1 [Intermediate 250 in WO2019/ 138017 (regioisomere 2), reference compound] | – | 4000 nM

Second part, the compound after the results:

Row | IC50 [1] | IC50 [2] | Structure (SMILES)
8 | 7 nM | – | Cc1cnc(C(=O)NC(c2nc3cc(Cl)ccc3n2CC(F)F)C2COCCO2)cn1 (single isomer, unassigned) [Example 4, N-{[5-chloro-1-(2,2-difluoroethyl)-1H-1,3-benzodiazol-2-yl](1,4-dioxan-2-yl)methyl}-5-methylpyrazine-2-carboxamide]
9 | 62 nM | – | Cc1cnc(C(=O)NC(c2nc3cc(Cl)ccc3n2CC(F)F)C2COCCO2)cn1 (single isomer, unassigned) [Example 5]
10 | 6 nM | – | Cc1cnc(C(=O)NC(c2nc3ccc(C(F)(F)F)cc3n2CC(F)F)C2COCCO2)cn1 (single isomer, unassigned) [Example 6]
11 | 70 nM | – | Cc1cnc(C(=O)NC(c2nc3ccc(C(F)(F)F)cc3n2C)C2COCCO2)cn1 (single isomer, unassigned) [Example 7, N-[(1,4-dioxan-2-yl)[1-methyl-6-(trifluoromethyl)-1H-1,3-benzodiazol-2-yl]methyl]-5-methylpyrazine-2-carboxamide]
12 | 11 nM | – | Cc1cnc(C(=O)NC(c2nc3cc(F)c(F)cc3n2CC(F)F)C2COCCO2)cn1 (single isomer, unassigned) [Example 9, N-{[1-(2,2-difluoroethyl)-5,6-difluoro-1H-1,3-benzodiazol-2-yl](1,4-dioxan-2-yl)methyl}-5-methylpyrazine-2-carboxamide]
13 | 20 nM | – | CCn1c(C(NC(=O)c2cnc(C)cn2)C2COCCO2)nc2cc(F)ccc21 (single isomer, unassigned) [Example 10, N-[(1,4-dioxan-2-yl)(1-ethyl-5-fluoro-1H-1,3-benzodiazol-2-yl)methyl]-5-methylpyrazine-2-carboxamide]
14 | 15 nM | – | CCn1c(C(NC(=O)c2cnc(C)cn2)C2COCCO2)nc2cc(F)c(F)cc21 (single isomer, unassigned) [Example 11]
15 | 14 nM | – | Cc1cnc(C(=O)N[C@H](c2nc3cc(F)ccc3n2CC(F)F)[C@H]2COCCO2)cn1 [Example 2, N-[(R)-[1-(2,2-difluoroethyl)-5-fluoro-1H-1,3-benzodiazol-2-yl][(2S)-1,4-dioxan-2-yl]methyl]-5-methylpyrazine-2-carboxamide]
16 | 5 nM | – | CCn1c([C@@H](NC(=O)c2cnc(C)cn2)[C@H]2COCCO2)nc2cc(C(F)(F)F)ccc21 [Example 3, N-[(R)-[(2S)-1,4-dioxan-2-yl][1-ethyl-5-(trifluoromethyl)-1H-1,3-benzodiazol-2-yl]methyl]-5-methylpyrazine-2-carboxamide]
17 | 31 nM | – | Cc1cnc(C(=O)N[C@H](c2nc3ccc(F)cc3n2CC(F)F)[C@H]2COCCO2)cn1 [Example 8, N-[(R)-[1-(2,2-difluoroethyl)-6-fluoro-1H-1,3-benzodiazol-2-yl][(2S)-1,4-dioxan-2-yl]methyl]-5-methylpyrazine-2-carboxamide]
